In patent US20040009904A1, “APL immunoreactive peptides, conjugates thereof and methods of treatment for aPL antibody-mediated pathologies” (priority 1995, published 2004):
Numbered stars: 1 amine (or outer) side, 2 acyl side, 3 side chain; on linkers, the order of the positions; unused ones are H or OH. Bridge positions count the residues as written; N and C are the ends. Square brackets hold non-standard residues; d marks the D form. Peptide text beside a SMILES is read from it. Abu(4-yl) = O=C([C@H](CC[*:3])N[*:1])[*:2]

Experiments:
ACA-6501 [1] = assay: Competitive binding peptide ACA ELISA, cardiolipin/β2-GPI-coated plates; parameters: species or system human; details: for with ACA 6501 150 ug/mL: Optimization of Peptide 3G3, inf = no 50% inhibition; for Percent Inhibition of AffACA by Peptide Monomers, 6501: affinity purified antibody; for IC50 Values, ACA-6501: cyclic thioether analogs
How it was run: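 Monomeric peptides at several amounts were preincubated ~1 h at RT with ACA-6501 serum (final 1:400), then added to cardiolipin-coated, fish-gelatin-blocked plates with β2-GPI for 1 h at RT. Bound IgG was detected with alkaline phosphatase anti-human IgG and phenolphthalein monophosphate, read at 550 nm. IC50 was the peptide amount at half-maximal absorbance.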

ACA = assay: Structure Activity Relationship of the Crossreactive ACA Epitope (relative activity); assay type: binding, human; details: LJP 688 = 100
Description: Peptide 6641/3G3 (LJP 688) was subjected to a number of analyses. The analyses included truncation at both the N-terminus and the C-terminus, disulfide substitution, substitution of alanine and glycine for amino acids in positions 2 through 8, substitution of branched aliphatic amino acids in positions 2, 4, 5 and 8, substitution of amino acids affecting conformation of the peptide, including substitution of α-methyl amino acids, substitution of basic amino acids in position 7, substitution of D-amino acids in positions 2 through 9, and the substitution of N-α-methyl amino acids in positions 1 through 9.

ACA-6501 [2] = assay: Phage-ELISA; assay type: binding, human; details: phage clones coated on wells, affACA-6501 2.5 μg/mL
Procedure: This method of selecting phage requires very tight binding of the insert to the screening antibody. Phage are directly coated onto wells of a microtitration plate and incubated with the screening antibody. Following washes to remove unbound antibody, an anti-human IgG alkaline phosphatase conjugate is added to bind any aPL antibodies bound to the phage. APL antibodies are then detected by adding a calorimetric substrate to the well which will react with alkaline phosphatase according to methods well known in the art.
Three mL cultures were prepared from 35 clones previously isolated with affinity purified ACA-6501 in several phage library screens as well as one fUSE 2 phage clone lacking a peptide insert which was used as a control. After centrifugation for 3 minutes at 17,000×g, 100 μL from each phage supernatant (adjusted to −2×10^11 particles/mL, based on absorbance) was added to microtitration plate wells (Falcon, Becton-Dickinson Labware, Lincoln Park, N.Y.) and allowed to incubate overnight at 4° C. Following four washes with TBS 7.4, the plate was blocked with 125 μL of 0.5% BSA/TBS for 1 hour at RT. After another four TBS washes, 100 μL of affACA-6501 previously diluted to 2.5 μg/mL in TBS/BSA was added to each well and allowed to incubate 1 hour at 37° C. Following an additional four washes, 100 μL anti-human IgG diluted 1:1000 in TBS/0.5% Tween was added to each well. After 1 hour at RT, enzyme substrate was added and the incubation allowed to proceed for 2 hours. Following the addition of 50 μL 0.2 M Na2HPO4 to stop the reaction, absorbance was measured at 550 nm in the automated plate absorbance reader. […] The sequences for these clones are showvn in Table 2.

ACA-6626 = assay: Competitive binding peptide ACA ELISA, cardiolipin/β2-GPI-coated plates; parameters: species or system human; details: affinity purified antibody
Procedure: (§1) A variation of this assay uses microtitration plates coated with human β2-glycoprotein I/cardiolipin (β2-GPI/CL) instead of tetravalent peptide and tests the ability of monomeric peptides to block the binding of aPL antibody to the epitope(s) on β2-GPI/CL. In this assay, IgG-depleted human serum at an optimized concentration is used as a source of β2-GPI. The monomeric peptides at several concentrations are incubated with an optimized concentration of aPL antibody in a manner analogous to the assay which employs tetravalent peptide as a plate substrate. Following the incubation of aPL/peptide in (β2-GPI/CL) plates, antibody binding and the peptide concentration required for 50% inhibition is determined at half-maximal absorbance as in the tetravalent assay.
(§2) Peptide sequences for all five peptides immediately follow the table. All were tested using the competitive binding peptide ACA ELISA using CL/β2-GPI plates as described herein.
(§3) (B) Immulon I® 96-well, flat-bottom, polystyrene microtitration plates (Dynatech Laboratories, Inc., Chantilly, Va.) were coated with 30 μL/well of cardiolipin (CL, 50 μg; Sigma Chemical Co., St. Louis, Mo.) in ethanol. Two control wells received 30 μL ethanol only. After overnight evaporation at 4° C., each well was blocked with 200 μL of 5% (w/v) fish gelatin in PBS for 2 hours at RT.
(§4) The CL/β2-GPI microtitration plate was washed 5 times with TBS and 100 μL aliquots in duplicate from Eppendorf tubes #1, 2, 3, and 4 containing the antibody-peptide (or no peptide mixtures) were added to the wells. A volume of 100 μL from tube #4 was added to the duplicate control wells containing no cardiolipin. The microtitration plate was incubated for 1 hour at RT with agitation at 40 rpm in an orbital shaker (American Scientific, Rotator V), washed 5 times with TBS and then 100 μL of 1:1000 goat anti-human IgG alkaline phosphatase conjugate (Zymed, Cat No. 62-8422) in 0.5% (w/v) BSA-TBS was added. Following incubation for 1 hour at RT, the microtitration plate was again washed 5 times with TBS and the colorimetric enzyme detection developed by adding 100 μL of PMPP solution (7.8 g phenolphthalein monophosphate plus 69.5 g of 2-amino-2-methyl-1-propanol in 100 mL water stock solution diluted 1:26 with water). After 21 minutes, the reaction was stopped by adding 50 μL of 0.2 M Na2HPO4 (Mallinckrodt) to each well. Absorbance at 550 nm was read in a microplate reader (Bio-Tek Instruments, Model EL 311). The amount of peptide that inhibited ACA-6501 binding by 50%, the IC50, was calculated from the graph at the intersection of half-maximal absorbance with amount of peptide added.

ACA-6638 = assay: as above; parameters: species or system human; details: affinity purified antibody
Procedure: as §1, §2, §3, §4

ACA-6641 = assay: as above; parameters: species or system human; details: affinity purified antibody
Procedure: as §1, §2, §3, §4

ACA-6644 = assay: as above; parameters: species or system human; details: affinity purified antibody
Procedure: as §1, §2, §3, §4

ACA-6701 = assay: as above; parameters: species or system human; details: for Percent Inhibition of AffACA by Peptide Monomers, 6701: affinity purified antibody; for IC50 Values, ACA-6701: cyclic thioether analogs
Procedure: as §1, §2, §3, §4

ACA-6903 = assay: as above; parameters: species or system human; details: affinity purified antibody
Procedure: as §1, §2, §3, §4

ACA-7004 = assay: as above; parameters: species or system human; details: affinity purified antibody
Procedure: as §1, §2, §3, §4

ACA-7005 = assay: as above; parameters: species or system human; details: affinity purified antibody
Procedure: as §1, §2, §3, §4

ACA antibodies = assay: Competitive binding peptide ACA ELISA, cardiolipin/β2-GPI-coated plates, panel of ACA antibodies (average); parameters: species or system human; details: average over nine antibodies
Procedure: as §1, §2
As noted in Section I above, one synthetic peptide, 6641/3G3 was tested against several high titer ACA antisera. This peptide appeared to be crossreactive with the vast majority of ACA antisera tested as illustrated in FIG. 14.
as §3, §4

CC(C)C[C@@H]1NC(=O)[C@H](CCCCN)NC(=O)[C@H](C)NC(=O)[C@H](CC(C)C)NC(=O)[C@H](C(C)C)NC(=O)CNC(=O)[C@H](CC(C)C)NC(=O)[C@@H](N)CSSC[C@@H](C(=O)O)NC1=O [peptide 925, CLGVLAKLC] (H-CLGVLAKLC-OH; disulfide 1-9)
with ACA 6501 150 ug/mL (ACA-6501 [1]): 40 µg/mL | Relative Activity (ACA): 1.8

CILLAHDRC [3E7, ACA-6501 phage clone insert]
signal in the phage-ELISA (ACA-6501 [2]): significant signals

GILALDYV GG (GILALDYVGG) [6644/CBf]
Percent Inhibition of AffACA by Peptide Monomers, 6501 (ACA-6501 [1]; peptide 200 μg/mL): 37% | Percent Inhibition of AffACA by Peptide Monomers, 6626 (ACA-6626; peptide 200 μg/mL): 37% | Percent Inhibition of AffACA by Peptide Monomers, 6638 (ACA-6638; peptide 200 μg/mL): 60% | Percent Inhibition of AffACA by Peptide Monomers, 6641 (ACA-6641; peptide 200 μg/mL): 28% | Percent Inhibition of AffACA by Peptide Monomers, 6644 (ACA-6644; peptide 200 μg/mL): 18% | Percent Inhibition of AffACA by Peptide Monomers, 6701 (ACA-6701; peptide 200 μg/mL): 22% | Percent Inhibition of AffACA by Peptide Monomers, 6903 (ACA-6903; peptide 200 μg/mL): 43% | Percent Inhibition of AffACA by Peptide Monomers, 7004 (ACA-7004; peptide 200 μg/mL): 54% | Percent Inhibition of AffACA by Peptide Monomers, 7005 (ACA-7005; peptide 200 μg/mL): 57% | Percent Inhibition of AffACA by Peptide Monomers, Ave. (ACA antibodies; peptide 200 μg/mL): 39%

AGP LSDPGYVRNIFH PG (LSDPGYVRNIFHPG) [6701/3B1]
Percent Inhibition of AffACA by Peptide Monomers, 6501 (ACA-6501 [1]; peptide 1 mg/mL): 41% | Percent Inhibition of AffACA by Peptide Monomers, 6626 (ACA-6626; peptide 1 mg/mL): 43% | Percent Inhibition of AffACA by Peptide Monomers, 6638 (ACA-6638; peptide 1 mg/mL): 65% | Percent Inhibition of AffACA by Peptide Monomers, 6641 (ACA-6641; peptide 1 mg/mL): 43% | Percent Inhibition of AffACA by Peptide Monomers, 6644 (ACA-6644; peptide 1 mg/mL): 37% | Percent Inhibition of AffACA by Peptide Monomers, 6701 (ACA-6701; peptide 1 mg/mL): 96% | Percent Inhibition of AffACA by Peptide Monomers, 6903 (ACA-6903; peptide 1 mg/mL): 51% | Percent Inhibition of AffACA by Peptide Monomers, 7004 (ACA-7004; peptide 1 mg/mL): 72% | Percent Inhibition of AffACA by Peptide Monomers, 7005 (ACA-7005; peptide 1 mg/mL): 23% | Percent Inhibition of AffACA by Peptide Monomers, Ave. (ACA antibodies; peptide 1 mg/mL): 52%

CLVLALDRC [3B6, ACA-6501 phage clone insert]
signal in the phage-ELISA (ACA-6501 [2]): significant signals

CC(C)C[C@@H]1NC(=O)[C@H](CCCCN)NC(=O)CNC(=O)[C@H](CC(C)C)NC(=O)[C@H](C(C)C)NC(=O)CNC(=O)[C@H](CC(C)C)NC(=O)[C@@H](N)CSSC[C@@H](C(=O)O)NC1=O [LJP 690, CLGVLGKLC] (H-CLGVLGKLC-OH; disulfide 1-9)
IC50 Values, ACA-6501 (ACA-6501 [1]): 10.0 μg/0.1 mL | IC50 Values, ACA-6701 (ACA-6701): 4.0 μg/0.1 mL | Relative Activity (ACA): 3.5

CLGVAGKLC [C L G V A G K L C]
with ACA 6501 150 ug/mL (ACA-6501 [1]): inf | Relative Activity (ACA): ∞

AGP DGNIADPRC PG (DGNIADPRCPG) [6626/4C7]
Percent Inhibition of AffACA by Peptide Monomers, 6501 (ACA-6501 [1]; peptide 1 mg/mL): 39% | Percent Inhibition of AffACA by Peptide Monomers, 6626 (ACA-6626; peptide 1 mg/mL): 88% | Percent Inhibition of AffACA by Peptide Monomers, 6638 (ACA-6638; peptide 1 mg/mL): 96% | Percent Inhibition of AffACA by Peptide Monomers, 6641 (ACA-6641; peptide 1 mg/mL): 45% | Percent Inhibition of AffACA by Peptide Monomers, 6644 (ACA-6644; peptide 1 mg/mL): 45% | Percent Inhibition of AffACA by Peptide Monomers, 6701 (ACA-6701; peptide 1 mg/mL): 69% | Percent Inhibition of AffACA by Peptide Monomers, 6903 (ACA-6903; peptide 1 mg/mL): 77% | Percent Inhibition of AffACA by Peptide Monomers, 7004 (ACA-7004; peptide 1 mg/mL): 99% | Percent Inhibition of AffACA by Peptide Monomers, 7005 (ACA-7005; peptide 1 mg/mL): 54% | Percent Inhibition of AffACA by Peptide Monomers, Ave. (ACA antibodies; peptide 1 mg/mL): 68%

CTILTLDRC [2H2, ACA-6501 phage clone insert]
signal in the phage-ELISA (ACA-6501 [2]): significant signals

CC(C)C[C@@H]1NC(=O)[C@H](CCCCN)NC(=O)CNC(=O)[C@H](CC(C)C)NC(=O)[C@H](C(C)C)NC(=O)CNC(=O)[C@H](CC(C)C)NC(=O)[C@@H](N)CCSC[C@@H](C(=O)O)NC1=O [LJP 699] (H-[Abu(4-yl)]LGVLGKLC-OH; thioether 1-9)
with ACA 6501 150 ug/mL (ACA-6501 [1]): 46 µg/mL | IC50 Values, ACA-6501 (ACA-6501 [1]): 4.6 μg/0.1 mL | IC50 Values, ACA-6701 (ACA-6701): 3.0 μg/0.1 mL | Relative Activity (ACA): 1.6

CLGVLGALC [C L G V L G A L C]
with ACA 6501 150 ug/mL (ACA-6501 [1]): inf | Relative Activity (ACA): ∞

SLGVLGKLS [diserine non-cyclized negative control, reference compound]
Relative Activity (ACA): ∞

CLGVLPGKLC
Relative Activity (ACA): 1.4

CC(C)C[C@@H]1NC(=O)[C@H](CCCCN)NC(=O)CNC(=O)[C@@H](CC(C)C)NC(=O)[C@@H](C(C)C)NC(=O)CNC(=O)[C@H](CC(C)C)NC(=O)[C@@H](N)CSSC[C@@H](C(=O)O)NC1=O [C L G dV dL G K L C] (H-CLG[dV][dL]GKLC-OH; disulfide 1-9)
with ACA 6501 150 ug/mL (ACA-6501 [1]): 50 µg/mL | Relative Activity (ACA): 5.9
